# Where “and” joins values, the source holds several entries; their conditions need not be identical. Identical values can stand only once.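 Compound exposure: 48 hours, 5 concentrations, 96-well plates. GI50 marks 50% less growth. At the TGI there is no net growth.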
# What was measured:
# Test in all cases: NCI-60 cell line screen, 48 h
# [1] = tested on: A549 NSCLC
# [2] = tested on: A498 renal
# [3] = tested on: OVCAR-8 ovarian
# [4] = tested on: LOX IMVI melanoma
# [5] = tested on: SN12C renal
# [6] = tested on: OVCAR-5 ovarian
# [7] = tested on: DU-145 prostate
# [8] = tested on: SF-268 CNS
# [9] = tested on: SK-MEL-2 melanoma
# [10] = tested on: M14 melanoma
# [11] = tested on: SK-OV-3 ovarian
# [12] = tested on: OVCAR-4 ovarian
# [13] = tested on: HCT-15 colon
# [14] = tested on: IGROV1 ovarian
# [15] = tested on: T-47D breast
# [16] = tested on: SNB-19 CNS
# [17] = tested on: U251 CNS
# [18] = tested on: PC-3 prostate
# [19] = tested on: NCI-H23 lung
# [20] = tested on: HCT-116 colon
# [21] = tested on: CAKI-1 renal
# [22] = tested on: EKVX NSCLC
# [23] = tested on: HOP-62 NSCLC
# [24] = tested on: HL-60(TB) leukemia
# [25] = tested on: 786-0 renal
# [26] = tested on: SF-539 CNS
# [27] = tested on: NCI-H226 lung
# [28] = tested on: NCI-H460 lung
# [29] = tested on: HS 578T breast
# [30] = tested on: MOLT-4 leukemia
# [31] = tested on: HT29 colon
# [32] = tested on: UO-31 renal
# [33] = tested on: TK-10 renal
# [34] = tested on: HOP-92 NSCLC
# [35] = tested on: SNB-75 CNS
# [36] = tested on: SF-295 CNS
# [37] = tested on: CCRF-CEM leukemia
# [38] = tested on: UACC-62 melanoma
# [39] = tested on: BT-549 breast
# [40] = tested on: OVCAR-3 ovarian
# [41] = tested on: ACHN renal
# [42] = tested on: RPMI-8226 leukemia
# [43] = tested on: MDA-MB-435
# [44] = tested on: MALME-3M melanoma
# [45] = tested on: MCF7 breast
# [46] = tested on: HCC-2998 colon
# [47] = tested on: MDA-MB-231 breast
# [48] = tested on: SK-MEL-28 melanoma
# [49] = tested on: SR leukemia
# [50] = tested on: SW-620 colon
# [51] = tested on: RXF 393 renal
# [52] = tested on: NCI/ADR-RES ovarian
# [53] = tested on: COLO 205 colon
# [54] = tested on: SK-MEL-5 melanoma
# [55] = tested on: K-562 leukemia
# [56] = tested on: KM12 colon
# [57] = tested on: NCI-H522 lung
# [58] = tested on: MDA-N
# [59] = tested on: UACC-257 melanoma
structure (smiles),measurement,setting,value
CC[C@H](C)[C@H](NC(=O)[C@H]1CCCCN1C)C(=O)N(C)[C@H](C[C@@H](OC(C)=O)c1nc(C(=O)NC23C4C5C2C2C3C4C52C(=O)OC)cs1)C(C)C (stereo partly specified),GI50,[1],8.79 nM and 2.5 nM
same,TGI,[1],> 25000 nM
same,GI50,[2],13.9 nM and 3.17 nM
same,TGI,[2],133 nM
same,GI50,[3],2.04 nM and 2.5 nM
same,TGI,[3],> 25000 nM
same,GI50,[4],1.08 nM and 2.5 nM
same,TGI,[4],> 25000 nM
same,GI50,[5],1.99 nM and 2.5 nM
same,TGI,[5],9330 nM
same,GI50,[6],70.2 nM and 70.7 nM
same,TGI,[6],> 25000 nM
same,GI50,[7],1.13 nM and 2.5 nM
same,TGI,[7],31 nM
same,GI50,[8],2.79 nM and 2.5 nM
same,TGI,[8],> 25000 nM
same,GI50,[9],1.85 nM and 2.5 nM
same,TGI,[9],4.52 nM
same,GI50,[10],7.13 nM and < 2.5 nM
same,TGI,[10],< 2.5 nM
same,GI50,[11],10.2 nM and 2.5 nM
same,TGI,[11],> 25000 nM
same,GI50,[12],50.6 nM
same,TGI,[12],> 25000 nM
same,GI50,[13],7.63 nM and 3.02 nM
same,TGI,[13],> 25000 nM
same,GI50,[14],2.42 nM and 2.5 nM
same,TGI,[14],20100 nM
same,GI50,[15],2.75 nM
same,GI50,[16],3.96 nM and 2.5 nM
same,TGI,[16],> 25000 nM
same,GI50,[17],4.24 nM and 2.5 nM
same,TGI,[17],> 25000 nM
same,GI50,[18],2.63 nM and 2.5 nM
same,TGI,[18],> 25000 nM
same,GI50,[19],4.14 nM and 2.5 nM
same,TGI,[19],> 25000 nM
same,GI50,[20],3.55 nM and 2.5 nM
same,TGI,[20],88 nM
same,GI50,[21],16 nM
same,GI50,[22],27 nM and 11 nM
same,TGI,[22],> 25000 nM
same,GI50,[23],2.65 nM and 2.5 nM
same,TGI,[23],> 25000 nM
same,GI50,[24],0.317 nM and < 2.5 nM
same,TGI,[24],1.96 nM and < 2.5 nM
same,GI50,[25],3.59 nM and 2.5 nM
same,TGI,[25],> 25000 nM
same,GI50,[26],1.15 nM and 2.5 nM
same,TGI,[26],11.4 nM and 9.41 nM
same,GI50,[27],25.6 nM and 22.2 nM
same,TGI,[27],1150 nM
same,GI50,[28],3 nM and 2.5 nM
same,TGI,[28],> 25000 nM
same,GI50,[29],0.754 nM and 2.5 nM
same,TGI,[29],> 25000 nM
same,GI50,[30],4.85 nM and 2.5 nM
same,TGI,[30],> 25000 nM
same,GI50,[31],1.14 nM and 2.5 nM
same,TGI,[31],61.2 nM and 49.3 nM
same,GI50,[32],35.8 nM and 11.4 nM
same,TGI,[32],> 25000 nM
same,GI50,[33],4.24 nM
same,GI50,[34],5440 nM
same,TGI,[34],> 25000 nM
same,GI50,[35],1.25 nM and 2.5 nM
same,TGI,[35],> 25000 nM
same,GI50,[36],2.53 nM and 2.5 nM
same,TGI,[36],94.4 nM and 282 nM
same,GI50,[37],2.7 nM and 2.5 nM
same,TGI,[37],3330 nM
same,GI50,[38],1.1 nM and 2.5 nM
same,TGI,[38],20100 nM
same,GI50,[39],3.44 nM and 2.5 nM
same,TGI,[39],80.1 nM and 26.8 nM
same,GI50,[40],0.489 nM and < 2.5 nM
same,GI50,[41],18.9 nM and 2.5 nM
same,TGI,[41],4030 nM
same,GI50,[42],1.97 nM and 2.5 nM
same,TGI,[42],7000 nM
same,GI50,[43],0.349 nM and < 2.5 nM
same,TGI,[43],2.78 nM and < 2.5 nM
same,GI50,[44],2.88 nM and 2.5 nM
same,TGI,[44],> 25000 nM
same,GI50,[45],0.557 nM and 2.5 nM
same,TGI,[45],> 25000 nM
same,GI50,[46],3.36 nM and 2.5 nM
same,TGI,[46],14300 nM
same,GI50,[47],4.29 nM and 2.5 nM
same,TGI,[47],> 25000 nM
same,GI50,[48],3120 nM
same,TGI,[48],> 25000 nM
same,TGI,[49],5980 nM
same,GI50,[50],1.49 nM and 2.5 nM
same,TGI,[50],> 25000 nM
same,GI50,[51],0.768 nM
same,TGI,[51],9.06 nM
same,GI50,[52],67.6 nM
same,GI50,[53],3.03 nM and 2.5 nM
same,TGI,[53],71.5 nM and 11.1 nM
same,GI50,[54],0.838 nM and 2.5 nM
same,TGI,[54],24.1 nM and 10.2 nM
same,GI50,[55],0.952 nM and 2.5 nM
same,TGI,[55],> 25000 nM
same,GI50,[56],3.09 nM and 2.5 nM
same,TGI,[56],> 25000 nM
same,GI50,[57],0.331 nM and < 2.5 nM
O=C1NC(c2cccc3ccccc23)Nc2ccccc21 (stereo unspecified),GI50,[1],58.2 nM
same,TGI,[1],> 100000 nM
same,TGI,[2],84.8 nM
same,GI50,[3],78.3 nM
same,TGI,[3],12000 nM
same,GI50,[4],38.9 nM
same,TGI,[4],> 96700 nM
same,GI50,[5],19.8 nM
same,TGI,[5],> 100000 nM
same,TGI,[6],> 65300 nM
same,GI50,[7],46 nM
same,TGI,[7],8110 nM
same,GI50,[8],48.5 nM
same,TGI,[8],> 100000 nM
same,TGI,[9],7500 nM and > 20200 nM
same,GI50,[10],17.7 nM
same,TGI,[10],672 nM
same,GI50,[11],31.6 nM
same,TGI,[11],252 nM
same,GI50,[12],166 nM
same,TGI,[12],> 100000 nM
same,TGI,[13],2280 nM and 2170 nM
same,GI50,[14],63.6 nM
same,TGI,[14],> 100000 nM
same,GI50,[16],55.4 nM
same,TGI,[16],> 100000 nM
same,GI50,[17],25.9 nM
same,TGI,[17],300 nM and 830 nM
same,GI50,[18],26.3 nM
same,TGI,[18],213 nM
same,GI50,[19],26.2 nM
same,TGI,[19],24800 nM
same,GI50,[21],28.2 nM
same,TGI,[21],1820 nM
same,GI50,[22],27.8 nM
same,TGI,[22],> 100000 nM
same,GI50,[23],31.7 nM
same,TGI,[23],29600 nM
same,GI50,[24],6.75 nM
same,TGI,[24],39.1 nM and 34.2 nM
same,GI50,[25],25.4 nM
same,TGI,[25],> 100000 nM
same,GI50,[26],10.5 nM
same,TGI,[26],32.9 nM and 165 nM
same,GI50,[27],23.8 nM
same,GI50,[28],40.5 nM
same,TGI,[28],730 nM and 4890 nM
same,TGI,[29],92200 nM
same,GI50,[30],44.3 nM
same,GI50,[31],25.6 nM and 30.6 nM
same,TGI,[31],1140 nM and 203 nM
same,GI50,[32],36.2 nM
same,TGI,[32],> 100000 nM
same,GI50,[33],54.5 nM
same,TGI,[33],> 68000 nM
same,TGI,[58],6.29 nM and 58.6 nM
same,TGI,[35],35900 nM
same,GI50,[36],59.2 nM
same,TGI,[36],894 nM
same,GI50,[37],29.6 nM
same,TGI,[37],538 nM
same,TGI,[38],> 100000 nM
same,TGI,[39],> 100000 nM
same,GI50,[40],21.5 nM
same,TGI,[40],56.8 nM and 44.2 nM
same,GI50,[41],38.3 nM
same,TGI,[41],> 54700 nM
same,TGI,[42],493 nM and 1050 nM
same,TGI,[43],6.8 nM
same,GI50,[44],26.3 nM
same,TGI,[44],43700 nM
same,GI50,[45],284 nM
same,TGI,[45],2560 nM
same,GI50,[46],173 nM
same,TGI,[46],743 nM and 489 nM
same,TGI,[47],3030 nM
same,TGI,[48],> 100000 nM
same,GI50,[49],10.6 nM
same,GI50,[50],20.3 nM
same,TGI,[50],> 56600 nM
same,TGI,[52],70.7 nM and 71.5 nM
same,TGI,[59],32600 nM
same,GI50,[53],27 nM
same,TGI,[53],95.4 nM
same,GI50,[54],9.88 nM
same,GI50,[55],7.58 nM
same,TGI,[56],5910 nM and 10400 nM
same,GI50,[57],19.4 nM and 49.7 nM
same,TGI,[57],76.5 nM and 250 nM

# From PubChem BioAssay (NCI)
